Key:
Bacillus subtilis [1] = assay: Antibacterial activity against Bacillus subtilis assessed as growth inhibition after 24 hr by tube dilution method; type: functional
Candida albicans [2] = assay: Antifungal activity against Candida albicans assessed as growth inhibition after 48 hr by tube dilution method; type: functional
P388 [3] = assay: Cytotoxicity against Mus musculus (mouse) P388 cells assessed as growth inhibition after 72 hr by MTT assay; type: functional, cell-based
Staphylococcus aureus [4] = assay: Ratio of MBC to MIC for Staphylococcus aureus; type: functional
Escherichia coli [5] = assay: Bactericidal activity against Escherichia coli; type: functional
Aspergillus niger [6] = assay: Ratio of MFC to MIC for Aspergillus niger; type: functional
Escherichia coli [7] = assay: Ratio of MBC to MIC for Escherichia coli; type: functional
Candida albicans [8] = assay: Fungicidal activity against Candida albicans; type: functional
MCF7 = assay: Cytotoxicity against Homo sapiens (human) MCF7 cells assessed as growth inhibition after 72 hr by MTT assay; type: functional, cell-based
P388 [9] = assay: Ratio of 5-Fluorouracil IC50 to compound IC50 for Mus musculus (mouse) P388 cells; type: functional
Staphylococcus aureus [10] = assay: Antibacterial activity against Staphylococcus aureus assessed as growth inhibition after 24 hr by tube dilution method; type: functional
Escherichia coli [11] = assay: Antibacterial activity against Escherichia coli assessed as growth inhibition after 24 hr by tube dilution method; type: functional
Candida albicans [12] = assay: Ratio of MFC to MIC for Candida albicans; type: functional
Aspergillus niger [13] = assay: Fungicidal activity against Aspergillus niger; type: functional
Bacillus subtilis [14] = assay: Bactericidal activity against Bacillus subtilis; type: functional
Bacillus subtilis [15] = assay: Ratio of MBC to MIC for Bacillus subtilis; type: functional
HCT-116 [16] = assay: Cytotoxicity against Homo sapiens (human) HCT116 cells assessed as growth inhibition after 72 hr by MTT assay; type: functional, cell-based
Staphylococcus aureus [17] = assay: Bactericidal activity against Staphylococcus aureus; type: functional
Aspergillus niger [18] = assay: Antifungal activity against Aspergillus niger assessed as growth inhibition after 7 days by tube dilution method; type: functional
HCT-116 [19] = assay: Ratio of 5-Fluorouracil IC50 to compound IC50 for Homo sapiens (human) HCT116 cells; type: functional

| SMILES | -logMIC (Bacillus subtilis [1]) | -logMIC (Candida albicans [2]) | IC50 (P388 [3]) | Ratio (Staphylococcus aureus [4]) | MBC (Escherichia coli [5]) [uM/ml] | Ratio (Aspergillus niger [6]) | Ratio (Escherichia coli [7]) | MFC (Candida albicans [8]) [uM/ml] | IC50 (MCF7) [uM/ml] | Ratio IC50 (P388 [9]) | -logMIC (Staphylococcus aureus [10]) | -logMIC (Escherichia coli [11]) | Ratio (Candida albicans [12]) | MFC (Aspergillus niger [13]) [uM/ml] | MBC (Bacillus subtilis [14]) [uM/ml] | Ratio (Bacillus subtilis [15]) | IC50 (HCT-116 [16]) [uM/ml] | MBC (Staphylococcus aureus [17]) [uM/ml] | -logMIC (Aspergillus niger [18]) | Ratio IC50 (HCT-116 [19]) |
| --- | --- | --- | --- | --- | --- | --- | --- | --- | --- | --- | --- | --- | --- | --- | --- | --- | --- | --- | --- | --- |
| Cc1cccc(NC(=O)c2ccc(/N=N\c3c[nH]c4ccccc34)cc2)c1 | 1.75 | 1.45 | 0.0003 uM/ml | 3 | >0.14 | 3 | 3 | 0.04 | 0.0734 | 73 | 1.45 | 1.75 | 3 | 0.04 | >0.14 | 3 | 0.0989 | >0.14 | 1.45 | – |
| Cc1ccc(NC(=O)c2ccc(/N=N\c3c[nH]c4ccccc34)cc2)cc1 | 1.45 | 1.45 | 0.0003 uM/ml | 3 | >0.14 | 3 | 3 | >0.14 | 0.0424 | 73 | 1.45 | 1.45 | 3 | 0.04 | >0.14 | 3 | 0.0254 | >0.14 | 1.45 | 1.8 |
| Cc1ccc(C)c(NC(=O)c2ccc(/N=N\c3c[nH]c4ccccc34)cc2)c1 | 1.47 | 1.47 | Not Active | 3 | >0.14 | 3 | 3 | 0.07 | 0.0299 | – | 1.47 | 1.77 | 3 | 0.03 | >0.14 | 3 | 0.5435 | >0.14 | 1.47 | – |
| O=C(Nc1ccc([N+](=O)[O-])cc1)c1ccc(/N=N\c2c[nH]c3ccccc23)cc1 | 1.49 | 1.49 | 0.0112 uM/ml | 3 | >0.13 | 3 | 3 | 0.13 | 0.0545 | – | 1.79 | 1.79 | 3 | 0.03 | >0.13 | 3 | 0.1558 | >0.13 | 1.49 | – |
| O=C(Nc1ccccc1)c1ccc(/N=N\c2c[nH]c3ccccc23)cc1 | 1.44 | 1.44 | Not Active | 3 | >0.15 | 3 | 3 | >0.15 | 0.1471 | – | 1.44 | 1.44 | 3 | 0.07 | >0.15 | 3 | 0.1029 | >0.15 | 1.44 | – |
| Cc1cccc(NC(=O)c2ccc(/N=N\c3c[nH]c4ccccc34)cc2)c1C | 1.47 | 1.47 | 0.0516 uM/ml | 3 | >0.14 | 3 | 3 | >0.14 | 0.106 | – | 1.77 | 1.47 | 3 | 0.03 | >0.14 | 3 | 0.2717 | >0.14 | 1.47 | – |
